In data set [1] the test system is IL-1β cytokine output from THP-1s. Kind of data set: THP-1 AlphaLISA IL-1β cytokine inhibition assay. In kind it is cell-based. The settings on record: for IC50: Homo sapiens. Put shortly: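 IL-1β release by AlphaLISA, expressed as % inhibition against +/− LPS controls on each plate. Differentiation: PMA, 72 h. Sequence: 30 min compound pre-treatment, LPS 24 h, Nigericin 1 h before supernatant harvest, all at 37° C./5% CO2.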
In general terms: In Alpha technology, singlet oxygen from a donor bead excites a nearby acceptor bead.

Data set [2] deals with IL-6 cytokine output from THP-1s. Kind of data set: THP-1 AlphaLISA IL-6 cytokine inhibition assay. The data set is classed as cell-based. The settings on record: Homo sapiens, THP-1, differentiated THP-1 cells, LPS then nigericin. Put shortly:
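THP-1 cells differentiated with PMA for 72 h, then pre-incubated with compound 30 min, stimulated with LPS 24 h, then Nigericin 1 h, all at 37° C. Supernatant IL-6 measured by AlphaLISA. Percentage inhibition normalized to +/− LPS plate controls.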

The subject of data set [3] is NRF2 (nuclear factor erythroid 2-related factor 2). Kind of data set: NRF2 +/-GSH activation assay (DiscoverX PathHunter NRF2 translocation kit, U2OS cells). In kind it is cell-based. Put shortly: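 Activation is expressed as percent of plate DMF (high) versus no-DMF (low) controls, from luminescence after 6 h compound exposure at 37 °C of U2OS PathHunter cells. The +GSH condition used compound pre-incubated 30 min in 6 mM working GSH; −GSH cells received compound directly.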

Data set [4] can be described thus: Hepatocyte stability assay, mouse. The data set is classed as in vitro ADME. The note with it: mouse, hepatocytes; for hepatocyte CLint at 10 μM: Hepatocyte stability Clint; for half-life at 10 μM: Hepatocyte stability T½. A digest of the protocol: (§1)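 Thawed cryopreserved hepatocytes (viability >70%) at 0.5×10^6 cells/mL in Leibovitz buffer were preincubated at 37° C, then given 10 μM compound (0.1% DMSO) in duplicate. Samples at 0–60 min were quenched in acetonitrile and analysed by LC-MS/MS. Intrinsic clearance and half-life were derived from ln % remaining versus time.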

A short description of data set [5]: Hepatocyte stability assay, human. The settings on record: human, hepatocytes; for hepatocyte CLint at 10 μM: Hepatocyte stability Clint; for half-life at 10 μM: Hepatocyte stability T½. In kind it is in vitro ADME. A digest of the protocol:
as §1

Where [6] appears, read: THP-1, differentiated THP-1 cells, LPS then nigericin.
Setting [7] is: +GSH, 30 minute compound-GSH pre-incubation, read-out: NRF2 activation +GSH EC50.
Setting [8] is: +GSH, normalised to DMF high control.
Setting [9] is: −GSH, U2OS PathHunter cells, 6 hours compound treatment, read-out: NRF2 activation −GSH EC50.
The mark [10] stands for this setting: −GSH, normalised to DMF high control.

Data on six compounds can be found in patent publication US12617762B2, “Carboxy derivatives with antiinflamatory properties” (Sitryx Therapeutics Limited, priority 2019, dated 2026).

Each structure is given as a SMILES string. Where two headings read alike, the source gives them in different places.

The term IC50 denotes the midpoint of a concentration-inhibition curve. Low values mean greater potency in that assay, high ones weaker potency in that assay. By EC50 is commonly meant the concentration needed to bring the measured effect to its halfway point. One may read the hepatocyte CLint as the capacity of the preparation to metabolise the compound, expressed as a volume cleared per time. As usually defined, the half-life is how long it takes for the measured level to halve. As for `C=C(Cc1nc(C2(c3ccc(S(F)(F)(F)(F)F)cc3)CC2)no1)C(=O)O` [Example 77, 2-((3-(1-(4-(pentafluoro-λ^6-sulfaneyl)phenyl)cyclopropyl)-1,2,4-oxadiazol-5-yl)methyl)acrylic acid], the IC50 was determined as 7.6 µM in data set [1] (THP-1, Table 3, head to head comparison of exo vs endo double bond compounds); 7.6 µM in data set [1] (setting [6]); 14.6 µM in data set [2]. Also, the EC50 in data set [3] (setting [7]) is 52.7 µM; in data set [3] (−GSH, Table 5 exo vs endo comparison, read-out: −GSH EC50), 48.1 µM; in data set [3] (setting [9]), 48.1 µM. For the same compound, the “NRF2 activation +GSH Emax” value in data set [3] (setting [8]) was 69%. The “NRF2 activation −GSH Emax” value in data set [3] (setting [10]) is 210%. The “−GSH Emax” value in data set [3] (−GSH, normalised to DMF high control, Table 5 exo vs endo comparison) amounted to 210%. The results for the hepatocyte CLint at 10 μM in data set [4] and in data set [5] were 10 µL/min/1e6 cells and less than 3 µL/min/1e6 cells, respectively. Moreover, the values for the half-life at 10 μM in data set [4] and in data set [5] were 189 min and more than 460 min, respectively.
Turning to `C=C(Cc1nc([C@@H](C)CCCCCC)no1)C(=O)O` [Example 43, (S)-2-((3-(octan-2-yl)-1,2,4-oxadiazol-5-yl)methyl)acrylic acid], the IC50 in data set [1] (setting [6]) was found to be 36.9 µM; in data set [2], 23.1 µM. Moreover, the EC50 in data set [3] (setting [7]) came to 27.4 µM; in data set [3] (setting [9]), 30.4 µM. In addition, in data set [3] (setting [8]), the “NRF2 activation +GSH Emax” value was determined as 81%. Besides, the “NRF2 activation −GSH Emax” value in data set [3] (setting [10]) was 166%. Besides, the hepatocyte CLint at 10 μM in data set [4] amounted to 142 µL/min/1e6 cells; in data set [5], 33 µL/min/1e6 cells. Also, the half-life at 10 μM was determined as 12 min in data set [4] and 42 min in data set [5].
In the case of `C=C(Cc1nc(-c2ccc(C3(CCC)CC3)cc2)no1)C(=O)O` [Example 72, 2-((3-(4-(1-propylcyclopropyl)phenyl)-1,2,4-oxadiazol-5-yl)methyl)acrylic acid], the IC50 turned out to be 7 µM in data set [1] (setting [6]) and 4.4 µM in data set [2]. The EC50 in data set [3] (setting [7]) was 19.5 µM; in data set [3] (setting [9]) it was 14.6 µM. Further, in data set [3] (setting [8]), the “NRF2 activation +GSH Emax” value came out at 151%. Also, the “NRF2 activation −GSH Emax” value in data set [3] (setting [10]) was 189%. Besides, the hepatocyte CLint at 10 μM stood at 28 µL/min/1e6 cells in data set [4] and 69 µL/min/1e6 cells in data set [5]. The half-life at 10 μM in data set [4] is 43 min; in data set [5], 27 min.
For `C=C(Cc1nc(Cc2ccc(-c3ccc(Cl)cc3)cc2)no1)C(=O)O` [Example 19, 2-((3-((4′-chloro-[1,1′-biphenyl]-4-yl)methyl)-1,2,4-oxadiazol-5-yl)methyl)acrylic acid], the IC50 worked out at 77 µM in data set [1] (setting [6]) and 3.3 µM in data set [2]. For the same compound, the EC50 amounted to 7.4 µM in data set [3] (setting [7]) and 2.5 µM in data set [3] (setting [9]). In data set [3] (setting [8]), the “NRF2 activation +GSH Emax” value came to 140%. Moreover, the “NRF2 activation −GSH Emax” value in data set [3] (setting [10]) stood at 206%. For the same compound, the values for the hepatocyte CLint at 10 μM in data set [4] and in data set [5] were more than 460 µL/min/1e6 cells and 63 µL/min/1e6 cells, respectively. Besides, the results for the half-life at 10 μM in data set [4] and in data set [5] were less than 3 min and 20 min, respectively.
On to `C=C(Cc1nc([C@H](C)CCCCCC)no1)C(=O)O` [Example 40, (R)-2-((3-(octan-2-yl)-1,2,4-oxadiazol-5-yl)methyl)acrylic acid], for which the IC50 was 27 µM in data set [1] (setting [6]) and 18.1 µM in data set [2]. The figures for the EC50 in data set [3] (setting [7]) and in data set [3] (setting [9]) were 27.5 µM and 25.3 µM, respectively. For the same compound, the “NRF2 activation +GSH Emax” value in data set [3] (setting [8]) is 81%. The “NRF2 activation −GSH Emax” value in data set [3] (setting [10]) stood at 168%. In addition, the results for the hepatocyte CLint at 10 μM in data set [4] and in data set [5] were 82 µL/min/1e6 cells and 21 µL/min/1e6 cells, respectively. In addition, the values for the half-life at 10 μM in data set [4] and in data set [5] were 20 min and 66 min, respectively.
As to `C=C(Cc1nc(C(C)CCCCCC(F)(F)F)no1)C(=O)O` (stereo not shown) [Example 54, 2-((3-(8,8,8-trifluorooctan-2-yl)-1,2,4-oxadiazol-5-yl)methyl)acrylic acid], the figures for the IC50 in data set [1] (setting [6]) and in data set [2] were more than 100 µM and 19.1 µM, respectively. The “IL-1β lowering, result in words” value in data set [1] (THP-1 IL-1β assay) was “not effective”. In addition, the EC50 was found to be 42.4 µM in data set [3] (setting [7]) and 44.6 µM in data set [3] (setting [9]). The “NRF2 activation +GSH Emax” value in data set [3] (setting [8]) stood at 50%. Moreover, the “NRF2 activation −GSH Emax” value in data set [3] (setting [10]) stood at 115%. Also, the hepatocyte CLint at 10 μM was determined as 13 µL/min/1e6 cells in data set [4] and 5 µL/min/1e6 cells in data set [5]. Also, the half-life at 10 μM in data set [4] was 102 min; in data set [5], 268 min.
